The results in this text go back to patent US20120035161A1, “Novel Compositions and Methods of Treating Diseases Using the Same” (CORRIDOR PHARMACEUTICALS, INC., priority 2006, published 2012).

Structures are written as SMILES. Where “and” joins values, the source holds several entries; their conditions need not be identical. Equal values may be shown once.

One data set relates to TNF-α. Put plainly: Model of LPS-mediated cytokine production, serum TNF-α. The format is in vivo, CD1:ICR mice. As to conditions: pre-dose time course, 10 mg/kg, IV or IP. The protocol:
Both ICI-685 and ICI-735 were formulated in water. For the time course study, both drugs were formulated at a concentration of 1 mg/ml and dosed 10 ml/kg to produce a dose of 10 mg/kg. For the dose-response study, drug was formulated at concentrations of 0.05, 0.2 and 0.5 mg/ml and dosed at a volume of 10 ml/kg to produce doses of 0.5, 2 and 5 mg/kg, respectively. Animals were dosed IV or IP.
CD1:ICR mice were obtained from Harlan (Indianapolis, Ind.) at 6 weeks of age. Animals were housed 5 per cage, kept on a 12 hr light dark cycle and fed food and water ad libitum. Animals were tested at 8-10 weeks of age.
Lipopolysaccharide (heat killed E. coli 0127:B5; Sigma Aldrich) was prepared in distilled water at a concentration of 0.025 mg/ml. LPS was dosed at a volume of 10 ml/kg (IP) to produce a final dose of 0.25 mg/kg (approximately 7.5 μg/mouse). Drugs were dosed prior to LPS administration as indicated elsewhere herein. Blood was collected by retro-orbital eye bleed 90 minutes after LPS administration, Serum was prepared from blood and TNF-α and IL-1β levels were measured by using the OPT-EIA mouse TNF-α and IL-1β ELISA kits (BD Biosciences) as per directions of the manufacturer.
The first study was designed to determine the optimal route of administration and the optimal pre-treatment time. Two pre-dose time course studies were conducted. The first (Study 1A) was conducted with 3 pre-dose time points (2, 6 and 18 hrs). The second was conducted at 0, 1 and 2 hr predose time points. For both studies, drug was dosed IP or IV.
Using data from the first study, a second study was conducted that was designed to measure dose-response activity of each compound. Compounds were tested at doses of […]., 2.0 and 5 mg/kg using the route and pre-treatment time that produced the best activity.
Compounds ICI-715, ICI-824, ICI-953 and ICI-954 were formulated in water. For the time course study, drugs were formulated at a concentration of 1 mg/ml and dosed 10 ml/kg to produce a dose of 10 mg/kg. For the dose-response study, drugs were formulated at concentrations of 0.05, 0.2 and 0.5 mg/ml and dosed at a volume of 10 ml/kg to produce doses of 0.5, 2 and 5 mg/kg, respectively. Animals were dosed IV or IP.
Lipopolysaccharide (heat killed E. coli 0127:B5; Sigma Aldrich) was prepared in distilled water at a concentration of 0.025 mg/ml, LPS was dosed at a volume of 10 ml/kg (IP) to produce a final dose of 0.25 mg/kg (approximately […]). Drugs were dosed prior to LPS administration as indicated above. Blood was collected by retro-orbital eye bleed 90 minutes after LPS administration. Serum was prepared from blood and TNF-α and IL-1β levels were measured by using the OPT-EIA mouse TNF-α and IL-1β ELISA kits (BD Biosciences) as per directions of the manufacturer.
The first study was designed to determine the optimal route of administration and the optimal pre-treatment time. One pre-dose time course was conducted (for all compounds) with compounds administered at 0, 1 and 2 hrs prior to LPS treatment. For both studies, drug was dosed IP or IV. The IP study and IV study were conducted on separate days.
Using data from the first study, a second study was conducted that was designed to measure dose-response activity of each compound. Compounds were tested at doses of 0.5, 2.0 and 5 mg/kg using the route and pre-treatment time that produced the best activity.

For data set [1], the system named is cryopreserved mixed gender human hepatocytes. Put plainly: Hepatocyte stability assay. It is filed as in vitro ADME. As to conditions: 5 μM test compound. The protocol:
Test compounds (5 μM) were incubated with cryopreserved mixed gender human hepatocytes pooled from at least 3 donors. Cell viability of hepatocytes was assessed by a Trypan Blue assay prior to the initiation of the stability assay. The final hepatocyte cell density was 1.5×10^6 viable cells/mL, Samples were taken at 2 time points: 0 and 60 minutes. As positive controls, testosterone (20 μM) and 7-hydroxy-coumarin (100 μM) were incubated and sampled at 5 time points: 0, 15, 30, 60, and 120 minutes. Aliquots were removed and combined (50/50) with acetonitrile to terminate the reaction. Samples were mixed for 10 minutes and centrifuged. The supernatants were transferred to vial for analysis by HRMS. In this assay, both test compound and a des-glycine metabolite (M1) are quantified based on peak area response ratios.
The enzymatic activities of the human cryopreserved hepatocytes used in this study were verified in parallel by determining the disappearance of testosterone (expressed as half-life) and the formation of 7-hydroxycoumarin glucuronide and 7-hydroxycoumarin sulfate (expressed as a formation rate).

A further data set has as its system HepG2 cells. Put plainly: Phospholipidosis assay (LipidTox). It is filed as cell-based. The note with it: human, 48 h. As for the experimental part: (§1) More recently, fluorescent dyes have been utilized to assess phospholipidosis in a high throughput manner (Nioi et al., 2007, Toxicol. Sci. 99:162-173). In this assay, HepG2 cells are plated in MEM growth medium and allowed to incubate overnight. Cells are treated with test compounds that have been added to the assay medium (10% fetal bovine serum) containing LipidTox (fluorescent lipophilic dye). After 48 h incubation, cells are fixed and stained with Hoechst. Plates are scanned with an automated fluorescent microscope (Thermo Fisher Cellomics ArrayScan 4.5) and image analysis is used to quantitate cell number and phospholipid accumulation. Compounds are tested in triplicate at multiple concentrations. Three reference compounds, sertraline, perhexyline, and meclizine (high, medium, and low inducers of phospholipidosis, respectively) are included in each assay. The data is expressed as fold induction over background and the % of the positive control (sertraline), which is calculated using the following equation:
(§2) % positive control=100×(RFUcompound−RFUbackground)/(RFUsertaline−RFUbackground),
(§3) where RFU=Relative Fluorescence Unit

Data set [2] in a line: Phospholipidosis assay (LipidTox). It is filed as cell-based. The note with it: human. As for the experimental part:
as §1, §2, §3

By fold induction is commonly meant the signal under treatment as a multiple of the control signal. For the molecule `NCC(=O)NCCN1CCN(CCCN2c3ccccc3Sc3ccc(C(F)(F)F)cc32)CC1` [ICI-735], the “inhibition of LPS-stimulated TNFα secretion” value in the data set with TNF-α is recorded as “inhibited”. For the same molecule, in data set [1] (T = 0 minutes), the “Relative Level (%)” value is 99.5% and 100.5%. Also, in data set [1] (T = 60 minutes), the “Peak Areas” value is 8.39E+06 and 8.79E+06; the “Relative Level (%)” value was 89.6% and 92.4%. For the same molecule, the “% Positive Control” value with HepG2 cells (1 μM) came to 43%. Besides, the “% Positive Control” value in the data set with HepG2 cells (3 μM) was 10%. Further, in data set [2], the cytotoxicity at 48 h, 1 µM came to 0%; the cytotoxicity at 48 h, 3 µM is 68%; the cytotoxicity at 48 h, 10 µM was 100%; the cytotoxicity at 48 h, 30 µM came out at 100%. Also, in data set [2], the fold induction at 48 h, 1 µM is 23 and the fold induction at 48 h, 3 µM came to 6.
